Test results taken from patent publication US11098072B2, “Alkenyl and beta-substituted phosphonates as antimicrobial agents” (The George Washington University, priority 2017, dated 2021).

System: P. falciparum
Test: Growth inhibition against P. falciparum
Format: cell-based
Conditions: Plasmodium falciparum; Table 3, diethyl phosphonate analogs; read-out: P.f. IC50

How did the IC50 turn out when CCOP(=O)(/C=C/CN(OCc1ccc2ccccc2c1)C(C)=O)OCC [Compound 15f, Diethyl [(1E)-3-{N-[(naphthalen-2-yl)methoxy]acetamido}prop-1-en-1-yl]phosphonate] was run?
Its IC50 is 29.6 µg/mL.

Which IC50 does the source give for CCOP(=O)(/C=C/CN(OCc1ccc(-c2ccccc2)cc1)C(C)=O)OCC [Compound 15g, Diethyl [(1E)-3-{N-[(4-phenylphenyl)methoxy]acetamido}prop-1-en-1-yl]phosphonate] here?
The IC50 was 13.7 µg/mL.

CCOP(=O)(/C=C/CN(OC(C)c1ccccc1)C(C)=O)OCC (stereo not drawn) [Compound 15d, Diethyl [(1E)-3-[N-(1-phenylethoxy)acetamido]prop-1-en-1-yl]phosphonate] was tested. Which IC50 did it give?
Its IC50 is 23.5 µg/mL.

How did the IC50 turn out when CCOP(=O)(/C=C/CN(OCc1ccc(C(C)C)cc1)C(C)=O)OCC [Compound 15e, Diethyl [(1E)-3-(N-{[4-(propan-2-yl)phenyl]methoxy}acetamido)prop-1-en-1-yl]phosphonate] was run?
Its IC50 is 21.1 µg/mL.

Same assay, conditions: Plasmodium falciparum; Table 4, growth inhibition; read-out: Pf IC50

For CC(C)(C)C(=O)OCOP(=O)(/C=C/CN(O)C(=O)C(F)(F)F)OCOC(=O)C(C)(C)C [Compound 18b, [({[(2,2-dimethylpropanoyl)oxy]methoxy}[(1E)-3-(2,2,2-trifluoro-N-hydroxyacetamido)prop-1-en-1-yl]phosphoryl)oxy]methyl 2,2-dimethylpropanoate], which IC50 is on record?
Its IC50 is 14.2 µM.

COC(=O)N(O)C/C=C/P(=O)(OCOC(=O)C(C)(C)C)OCOC(=O)C(C)(C)C [Compound 18c, [({[(2,2-dimethylpropanoyl)oxy]methoxy}[(1E)-3-[hydroxy(methoxycarbonyl)amino]prop-1-en-1-yl]phosphoryl)oxy]methyl 2,2-dimethylpropanoate] was tested. Which IC50 did it give?
The IC50 was 23.7 µM.

With CC(=O)N(C/C=C/P(=O)(OCOC(=O)C(C)(C)C)OCOC(=O)C(C)(C)C)OCc1ccc2ccccc2c1 [Compound 19f, [({[(2,2-dimethylpropanoyl)oxy]methoxy}[(1E)-3-{N-[(naphthalen-2-yl)methoxy]acetamido}prop-1-en-1-yl]phosphoryl)oxy]methyl 2,2-dimethylpropanoate] as the compound, how does the IC50 read?
Its IC50 is 49.9 µM.

CC(=O)N(C/C=C/P(=O)(OCOC(=O)C(C)(C)C)OCOC(=O)C(C)(C)C)OCc1ccc(C(C)C)cc1 [Compound 19e, [({[(2,2-dimethylpropanoyl)oxy]methoxy}[(1E)-3-(N-{[4-(propan-2-yl)phenyl]methoxy}acetamido)prop-1-en-1-yl]phosphoryl)oxy]methyl 2,2-dimethylpropanoate] was tested. Which IC50 did it give?
Its IC50 is 55.1 µM.

For CC(=O)N(C/C=C/P(=O)(OCOC(=O)C(C)(C)C)OCOC(=O)C(C)(C)C)OCc1ccc(-c2ccccc2)cc1 [Compound 19g, [({[(2,2-dimethylpropanoyl)oxy]methoxy}[(1E)-3-{N-[(4-phenylphenyl)methoxy]acetamido}prop-1-en-1-yl]phosphoryl)oxy]methyl 2,2-dimethylpropanoate], which IC50 is on record?
Its IC50 is 43.2 µM.

Same assay, conditions: Table 3, diethyl phosphonate analogs

With CCOP(=O)(/C=C/CN(O)C(=O)OC)OCC [Compound 11c, Methyl N-[(2E)-3-(diethoxyphosphoryl)prop-2-en-1-yl]-N-hydroxycarbamate] as the compound, how does the “P.f. IC50” value read?
Its value is greater than 100 µg/mL.

How did the “P.f. IC50” value turn out when CCOP(=O)(/C=C/CN(O)C=O)OCC [Compound 11a, Diethyl [(1E)-3-(N-hydroxyformamido)prop-1-en-1-yl]phosphonate] was run?
Its value is greater than 100 µg/mL.

For CCOP(=O)(/C=C/CN(O)C(=O)C(F)(F)F)OCC [Compound 11b, Diethyl [(1E)-3-(2,2,2-trifluoro-N-hydroxyacetamido)prop-1-en-1-yl]phosphonate], which “P.f. IC50” value is on record?
Its value is greater than 100 µg/mL.
